Laboratory results reported in patent US20240228491A1, “METHIONINE ADENOSYLTRANSFERASE INHIBITOR, PREPARATION METHOD THEREFOR AND APPLICATION THEREOF” (SCINNOHUB PHARMACEUTICAL CO., LTD., priority 2021, published 2024).
Where two headings read alike, the source gives them in different places.

Experiments:
[1] = In vivo pharmacokinetic study in SD rats; conditions: SD rat, plasma; for AUC(0-t): read-out: Area under curve AUC(0-t); for half-life: read-out: Half life T1/2 (converted); for Cmax: read-out: Maximal concentration Cmax
Method: Species: SD rat. Source: Charles River Laboratory Animal Technology Co., Ltd. Number: 3 rats per dosage group.
(§1) 1.1 An appropriate amount of the test sample was accurately weighed, into which 5% DMSO, 10% polyethylene glycol-15 hydroxystearate, 85% normal saline (all in volume percent) were added sequentially, and were fully mixed via vortex or ultrasound, to obtain the dosing solution with a test sample concentration of 0.2 mg/mL for intravenous administration.
as §1, with “1.2” for “1.1”, “0.5” for “0.2”, “oral gavage” for “intravenous”
Weighing was performed before administration, and the administration amount was calculated according to the body weight. The drug was administered orally by gavage or intravenously.
On the day of the test, 100 μL of blood was collected via the jugular sinus at each set time point, and the whole blood samples were placed in anticoagulation tubes containing EDTA-K2. Whole blood samples were centrifuged at 1500 g for 10 min to separate the plasma, and the upper plasma samples were collected into sample tubes. Biological samples were stored at −40° C. to −20° C. for analysis.
According to the requirements of SOP-BA-002 (Liquid Mass Spectrometry for biological sample analysis) of Suzhou 3D BioOptima New Drug Development Co., Ltd., an LC-MS/MS analytical method was established to determine the concentrations of compounds in rat plasma, and used to determine the concentrations of compounds in the biological samples obtained in this experiment.
Pharmacokinetic parameters were calculated using the non-compartment model of Pharsight Phoenix 8.0.

MAT2a = MAT2a (Homo sapiens (Human), UniProt P31153); experiment: MAT2a enzymatic activity test (colorimetric assay); type: biochemical; conditions: OD620, 150 min reaction, read-out: IC50 against MAT2a
Chain of MAT2a (P31153 whole entry): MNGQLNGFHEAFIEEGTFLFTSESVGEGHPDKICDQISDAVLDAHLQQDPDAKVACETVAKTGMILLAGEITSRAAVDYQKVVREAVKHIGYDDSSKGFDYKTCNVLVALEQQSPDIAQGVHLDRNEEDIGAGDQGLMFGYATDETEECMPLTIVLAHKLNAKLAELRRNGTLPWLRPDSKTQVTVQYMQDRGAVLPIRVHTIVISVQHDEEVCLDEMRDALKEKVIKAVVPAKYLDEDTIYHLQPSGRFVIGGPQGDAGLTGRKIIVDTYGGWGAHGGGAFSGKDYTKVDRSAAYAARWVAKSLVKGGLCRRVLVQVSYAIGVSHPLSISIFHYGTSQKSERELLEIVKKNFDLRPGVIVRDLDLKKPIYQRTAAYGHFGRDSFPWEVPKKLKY
Summary of the method: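 MAT2a (20 μg/mL working solution) was preincubated 15 min with compound (10-point, 3-fold series from 1 or 10 μM) in Tris/KCl/MgCl2 buffer, pH 8.0. Reaction with 400 μM ATP and 600 μM L-methionine (substrate-mix concentrations) ran 150 min. Phosphate was detected by BIOMOL Green at OD620, with IC50 from log(inhibitor)-response fitting.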

HCT116 MTAP-/- cells = experiment: Activity test of HCT116 MTAP gene homozygous deletion cells (CellTiter-Glo); type: cell-based; conditions: Homo sapiens, HCT-116, 120 h incubation, read-out: HCT116 MTAP-/- Cell IC50
Summary of the method: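 Cells seeded at 1000-3000/well in RPMI-1640 + 10% FBS, serum-starved 4 h, then treated with compound in complete medium for 120 h at 37 °C, 5% CO2. Viability read by CellTiter-Glo luminescence after 60 min; % inhibition versus untreated and cell-free wells, IC50 from dose-response fit.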

DOHH-2 cells = experiment: Inhibitory activity test of DOHH-2 cells; type: cell-based; conditions: Homo sapiens, 120 h incubation, CellTiter-Glo, read-out: DOHH-2 cell inhibitory activity IC50
Method: On day 1, cell seeding: cells were resuspended to the desired density with DMEM complete medium (Gibico, Cat. No. 10569010) supplemented with 10% FBS (Gibco, 10099141C), mixed evenly, and added into the 384-well plate at 30 μL/well with a cell density of 800/well. The compounds to be tested were added as follows: 30 nL of DMSO solution containing the compound (the concentration of the compound in which was formulated as: 3-fold gradient dilution from 10 mM, 10 concentration points in total) was added, incubated for 120 h at 37° C., 5% CO2. On day 6, the cells treated with compounds were removed and equilibrated to room temperature, 30 μL of CellTiter-Glo (Promega company, Cat. No. G7573) reagent was added per well, and the cells were fully lysed by shaking at room temperature, and then incubated in dark at 37° C., 5% CO2 for 30 min, to detect the fluorescence intensity.
% Inhibition=100−(signal of the well with the compound to be tested−signal of the well with only medium and free of cells)/(signal of the well with cells but without the addition of the compound−signal of the well with only medium and free of cells)×100.
The log value of concentration was used as the X-axis and % Inhibition was used as the Y-axis, so as to fit the dose-effect curve and calculate the IC50 value using nonlinear regression (dose response−variable slope) in the analysis software GraphPad Prism 8.

- Apparent clearance rate Cl ([1]; IV 1 mg/kg): 0.745 mL/min/kg
- AUC(0-t) ([1]; IV 1 mg/kg): 17600 ng·h/mL
- half-life ([1]; IV 1 mg/kg): 5.8 h
- Cmax ([1]; IV 1 mg/kg): 2710 ng/mL
- AUC(0-t) ([1]; PO 5 mg/kg): 67100 ng·h/mL
- half-life ([1]; PO 5 mg/kg): 9.14 h
- Cmax ([1]; PO 5 mg/kg): 4140 ng/mL
- bioavailability ([1]; PO 5 mg/kg vs IV 1 mg/kg, read-out: Bioavailability F %): 76.3%
- IC50 (MAT2a): 13.6 nM
- IC50 (HCT116 MTAP-/- cells): 7.43 nM
Compound: Nc1c(-c2ccc3nccnc3c2)c(=O)n(-c2ccc(Cl)cc2)c2nc(C(F)(F)F)ccc12 [Example 36]
- IC50 (DOHH-2 cells): 7 nM
